SMILES strings stand for the structures.

A short description of this data set: Human HepG2 cell viability assay in 384 well format. The format is toxicity, cell-based. On the set-up: dose 125 nL, time 70.5 hour; concentration not given beside the values. The following applies: HepG2 cells, read-out: Inhibition.
Regarding `CC(=O)NCCNC(=O)c1sc(-c2ccc(C)cc2C)nc1C`, the cytotoxicity at 70.5 h was 0.801%.
`C[C@@H]1CN(C(=O)c2nc3ccc(Cl)cn3c2-c2ncc[nH]2)C[C@H](C)O1`: the cytotoxicity at 70.5 h was -14.7%.
Take `CC(C)N1CCN2C(=O)N(C3CCCCC3)C[C@H]2C1`: the cytotoxicity at 70.5 h was 0.287%.
Turning to `CC(C)(C)c1ncc(CNCC2CCCN2c2cccnn2)s1` (stereo unspecified), the cytotoxicity at 70.5 h is 5.55%.
Consider `CCC1CN(CC(=O)NCCN2CCCC2)c2ccccc2S1` (stereo unspecified), for which the cytotoxicity at 70.5 h was -2.98%.
As to `O=C(c1cscn1)N1CC[C@]2(C[C@@H](OCCN3CCCC3)CO2)C1`, the cytotoxicity at 70.5 h is -6.54%.
In the case of `Cc1cc(Cc2ccc(S(=O)(=O)N3CCOCC3)cc2)c(=O)[nH]n1`, the cytotoxicity at 70.5 h turned out to be 12.1%.
Regarding `CC(CN1CCCCCC1)NCc1cc(-c2ccco2)on1` (stereo unspecified), the cytotoxicity at 70.5 h is -12.2%.
Consider `CC(C)c1nc(C2CCCN2CCCc2nc3ccccc3o2)no1` (stereo unspecified), for which the cytotoxicity at 70.5 h was -12.9%.
As to `Cn1cccc1C(=O)N1CCC(c2nccn2Cc2ccncc2)CC1`, the cytotoxicity at 70.5 h amounted to 25.5%.
Regarding `Cc1nc(N2CCC(C(O)c3nccn3C)CC2)c2nc(C)oc2n1` (stereo unspecified), the cytotoxicity at 70.5 h was -5.83%.
On to `CC(Cn1ccnc1)NC(=O)C1(c2ccccc2)CC1` (stereo unspecified), for which the cytotoxicity at 70.5 h is -10.4%.
For the compound `Cc1ccc2[nH]c3c(c2c1)CN(C(=O)CN(C)CC1OCCO1)CC3`, the cytotoxicity at 70.5 h is -1.1%.
For `CN(C)C(=O)CCC[S+]([O-])Cc1ccc(Cl)c(Cl)c1` (stereo unspecified), the cytotoxicity at 70.5 h is -3.04%.
The result for `O=C(NCCNc1ncccn1)C1CCN(C(=O)C2CC2)CC1` reads -13%; that for `Cc1cc(-c2nccs2)nc(C2CCN(Cc3ccc(F)cc3)CC2)n1`, -2%; that for `Cn1cc(CN2C[C@@H]3CCCO[C@@H]3[C@H](NC(=O)CC3CC3)C2)cn1`, 11.8%.
As to `Cc1ccccc1C(=O)NC(C)c1cnn(C)c1` (stereo unspecified), the cytotoxicity at 70.5 h is 27.8%.
Under `Cn1c(=O)c2cc(C(=O)NCc3ccccn3)ccc2n(C)c1=O` stands -4.37%.
Under `Cc1ccc(N2CCCC(NCc3ccc(-n4ccnc4)cc3)C2)nn1` (stereo unspecified) stands 17.4%; under `CCc1nc(CNC2CCCCNC2=O)cs1` (stereo unspecified), -6.64%.
Regarding `CC(C)N1CCOC(c2ccnc(N(C)C)n2)C1` (stereo unspecified), the cytotoxicity at 70.5 h was -3.86%.
Regarding `CCCN1CCCC(O)(c2nc(C)c(COc3ccccc3)s2)CC1` (stereo unspecified), the cytotoxicity at 70.5 h was 13.4%.
Consider `O=C([C@H]1COC[C@H]2CN(C3CCCC3)C[C@H]21)N1CCOCC1`, for which the cytotoxicity at 70.5 h was -9.13%.
In the case of `Cc1ccc(C(=O)N2CCC3(CCC(=O)N(CC(N)=O)C3)CC2)c(O)c1`, the cytotoxicity at 70.5 h is -9.11%.
With `CSc1[nH]c(=O)c(C(=O)N2CCCC2C2CCCC2)cc1C#N` (stereo unspecified), the cytotoxicity at 70.5 h is -5.31%.
Take `CCc1ocnc1C(=O)N1CCOC(c2nc(C)n[nH]2)C1` (stereo unspecified): the cytotoxicity at 70.5 h was -1.72%.
On to `Cn1cc(C(=O)NCc2cncc3c2CCNC3)cn1`, for which the cytotoxicity at 70.5 h was 23.2%.
As to `COCCN1CCC(C(=O)c2cc(F)ccc2F)CC1`, the cytotoxicity at 70.5 h was -2.7%.
Under `COCCNC(=O)NCCS(=O)(=O)N1CCN(c2cccc(C)c2)CC1` stands -12.5%.
Regarding `CN(CCc1ccccc1)C(=O)c1cccnc1OCC(F)(F)F`, the cytotoxicity at 70.5 h was determined as 20%.
Turning to `COCCOCCSc1nnc(Cc2ccccc2F)o1`, the cytotoxicity at 70.5 h was -4.09%.
For `Cc1ncnc2c1CCN(C(=O)c1cccnc1)CC2`, the cytotoxicity at 70.5 h was -6.81%.
As for `COCC1CN(Cc2ccccn2)Cc2cn(C)nc21` (stereo unspecified), the cytotoxicity at 70.5 h was -4.86%.
For `N#Cc1ccsc1C(=O)N1CCCCC1Cn1cccn1` (stereo unspecified), the cytotoxicity at 70.5 h is 9.01%.
For the compound `Cc1ccc(N2CCc3ncc(CNc4ccccn4)n3CC2)nn1`, the cytotoxicity at 70.5 h was -1.74%.
As to `Cc1nn(CCNS(=O)(=O)NCc2ccccc2)c(C)c1Cl`, the cytotoxicity at 70.5 h is -6.81%.
For the compound `CCN(CC)S(=O)(=O)N1CCCC(c2ncc3c(n2)CCN(C)C3)C1` (stereo unspecified), the cytotoxicity at 70.5 h turned out to be 23.8%.
With `CC(C)c1cnc(CNc2c(F)cccc2-n2cccn2)o1`, the cytotoxicity at 70.5 h is -4.44%.
For `COCc1cc(CC2(NC3CCN(C)CC3)COC2)no1`, the cytotoxicity at 70.5 h was 6.14%.
In the case of `CCN(C)S(=O)(=O)NC(C)c1cnc(N(C)C2CCCCC2)nc1C` (stereo unspecified), the cytotoxicity at 70.5 h is -4.92%.
In the case of `CCNC(=O)[C@@H]1C[C@H](N)CN1C1CCN(c2ccccc2OC)CC1`, the cytotoxicity at 70.5 h was -3.8%.
`c1cnc(N2C[C@@H]3COC[C@]3(COCC3CCCC3)C2)nc1`: the cytotoxicity at 70.5 h is -14.8%.
The result for `CC(C)N(C)CCCNC(=O)c1cnn(C(C)(C)C)c1C(F)(F)F` reads -7.79%.
As to `COCC(=O)N1CCN(C)C(=O)C(Cc2ccccc2-c2cccs2)C1` (stereo unspecified), the cytotoxicity at 70.5 h stood at 1.61%.
The result for `O=C(c1cc2c(F)cccc2[nH]1)N1CCCCC1Cn1cccn1` (stereo unspecified) reads 3.2%.
For the compound `CCC(NC(=O)CNCC(F)(F)F)c1cc(F)ccc1F` (stereo unspecified), the cytotoxicity at 70.5 h was -6.5%.
With `CCCS(=O)(=O)N1CCn2cc(CNc3ccccn3)nc2C1`, the cytotoxicity at 70.5 h was -2.49%.
Take `O=C(COc1cccc2c1CCC2=O)NCc1ccccc1F`: the cytotoxicity at 70.5 h is -2.34%.
In the case of `Cc1ccc(CN2CC[C@H]3C[C@H](c4nc(C5CC5)cs4)O[C@@H]3C2)o1`, the cytotoxicity at 70.5 h was -6.11%.
As to `C1CCN(CCOC2CCNCC2)C1`, the cytotoxicity at 70.5 h is -2.17%.
For `CC1CN(C)CCN1C(=O)c1ccc(-n2cnnc2)cc1` (stereo unspecified), the cytotoxicity at 70.5 h is -1.59%.
`O=C(C1CCOCC1)N1C[C@H]2CC[C@@H]1CN(C1Cc3ccccc3C1)C2`: the cytotoxicity at 70.5 h was -5.9%.
On to `N#Cc1ccccc1CN1CCCC(c2nccn2CC2CC2)C1` (stereo unspecified), for which the cytotoxicity at 70.5 h came to 12.6%.
For `c1ccc(OCC2C[C@@H]3[C@@H](C2)OCCN3CC2CCOCC2)nc1` (stereo partly specified), the cytotoxicity at 70.5 h was -0.766%.
The result for `Cc1nc(CCN)cc(N2CCC(O)(c3ccc(Cl)cc3)CC2)n1` reads 19.3%.
Turning to `OCCNc1nccc(-c2c[nH]nc2-c2cccnc2)n1`, the cytotoxicity at 70.5 h was -3.73%.
As to `O=C(Cn1cc(C(=O)O)ccc1=O)Nc1ccc(F)cc1Cl`, the cytotoxicity at 70.5 h is -23.3%.
`Cc1cnn(CCNCCCOc2ccc3c(c2)OCO3)c1`: the cytotoxicity at 70.5 h was -0.972%.
Regarding `Cc1ccc(N2CCCC(NCCCS(C)(=O)=O)C2)nn1` (stereo unspecified), the cytotoxicity at 70.5 h was -7.73%.
In the case of `COCCN1CCC2(CCN(CC3CC3)CC2)C1=O`, the cytotoxicity at 70.5 h is -2.3%.
As to `Cc1ccc(N2CCCC(NCc3cccs3)C2)nn1` (stereo unspecified), the cytotoxicity at 70.5 h is -1.01%.
With `Cc1noc(C)c1CN1CCC2(CC1)NC(=O)CC2c1ccncc1` (stereo unspecified), the cytotoxicity at 70.5 h is -9.41%.
Turning to `Cc1ccc2c(c1)c(CNC(=O)C1CC(=O)N(C3CC3)C1)nn2C` (stereo unspecified), the cytotoxicity at 70.5 h was -4.12%.
The result for `O=C(c1cc(-c2cccnc2)[nH]n1)N1CCCC(Cc2ccccn2)C1` (stereo unspecified) reads 9.07%.
The result for `CN(C)CCN1CCO[C@H]2CN(Cc3cnn(C)c3)C[C@H]21` reads -7.82%; that for `CNC(=O)NC(C)c1nc(-c2ccccc2)c[nH]1` (stereo unspecified), -3.67%.
The result for `CN(c1ccncn1)C1CC2(CCN(C(=O)c3cccs3)C2)C1` (stereo unspecified) reads -16.4%; that for `Cc1ccc(N2CC[C@@H]3O[C@@H](c4ccncn4)C[C@H]3C2)nn1`, -3.76%.
On to `Cc1nn(CC(=O)N2CCN(Cc3cccnc3)CC2)c(C)c1Cl`, for which the cytotoxicity at 70.5 h was -10.2%.
As to `Cc1n[nH]c(C)c1NC(=O)NCc1ccccn1`, the cytotoxicity at 70.5 h was -8.47%.
